Laboratory results: ChEMBL document CHEMBL1141157, “A combination of docking, QM/MM methods, and MD simulation for binding affinity estimation of metalloprotein ligands” (J Med Chem, 2005)

How the values were obtained:
[1] = biological target: T1, Matrix metalloproteinase-9 (Homo sapiens, UniProt P14780); assay: Inhibition of MOCAc-Pro-Leu-Gly-Leu-A2p (Dnp)-Ala-Arg-NH2 binding to human matrix metalloprotease-9 (MMP-9); conditions: read-out: Log 1/Ki (converted)
[2] = biological target: T1, Matrix metalloproteinase-9; assay: Inhibition constant for human matrix metalloprotease-9 (MMP-9)

T1 sequence (P14780 whole entry): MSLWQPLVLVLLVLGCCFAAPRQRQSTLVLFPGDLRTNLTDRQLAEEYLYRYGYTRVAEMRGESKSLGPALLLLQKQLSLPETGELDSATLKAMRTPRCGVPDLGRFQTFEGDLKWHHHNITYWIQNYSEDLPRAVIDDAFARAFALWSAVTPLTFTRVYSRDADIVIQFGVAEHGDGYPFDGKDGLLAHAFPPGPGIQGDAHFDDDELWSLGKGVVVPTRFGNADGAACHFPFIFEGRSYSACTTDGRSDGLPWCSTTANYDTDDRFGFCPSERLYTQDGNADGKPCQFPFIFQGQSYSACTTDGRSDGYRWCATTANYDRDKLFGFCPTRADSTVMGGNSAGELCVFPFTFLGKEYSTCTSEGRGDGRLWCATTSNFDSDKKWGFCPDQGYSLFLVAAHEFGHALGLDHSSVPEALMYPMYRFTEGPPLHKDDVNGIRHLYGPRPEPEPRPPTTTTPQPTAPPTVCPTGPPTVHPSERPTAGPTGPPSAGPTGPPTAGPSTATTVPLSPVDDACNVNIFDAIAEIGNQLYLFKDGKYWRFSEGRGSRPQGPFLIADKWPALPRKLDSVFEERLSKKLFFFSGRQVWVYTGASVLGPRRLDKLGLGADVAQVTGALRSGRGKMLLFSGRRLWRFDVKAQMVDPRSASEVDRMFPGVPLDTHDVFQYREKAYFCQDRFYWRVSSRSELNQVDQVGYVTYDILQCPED

SMILES | Ki [1] [nM] | Ki [2] [nM]
CCOP(=O)(c1ccc(OC)cc1)N1Cc2cc(N)ccc2C[C@@H]1C(=O)NO (stereo partly drawn) | 11 | –
CCOP(=O)(c1ccc(C)cc1)N1Cc2ccccc2C[C@@H]1C(=O)NO (stereo partly drawn) | 41.8 | 41.8
CCOP(=O)(c1ccc(N)cc1)N1Cc2ccccc2C[C@@H]1C(=O)NO (stereo partly drawn) | 95.5 | –
CCOP(=O)(c1ccc(Oc2ccccc2)cc1)N1Cc2ccccc2C[C@@H]1C(=O)NO (stereo partly drawn) | 0.0794 | –
CCOP(=O)(CCc1ccccc1)N1Cc2ccccc2C[C@@H]1C(=O)NO (stereo partly drawn) | 38.3 | –
CCOP(=O)(c1ccc(Oc2ccncc2)cc1)N1Cc2ccccc2C[C@@H]1C(=O)NO (stereo partly drawn) | 0.6 | –
CCOP(=O)(c1ccc(OC)cc1)N1Cc2ccccc2C[C@H]1C(=O)NO (stereo partly drawn) | 349 | 349
CCOP(=O)(c1ccc(Oc2ccc(N)cc2)cc1)N1Cc2ccccc2C[C@@H]1C(=O)NO (stereo partly drawn) | 0.1 | –
CCOP(=O)(c1ccc(OC)cc1)N1CCC[C@@H]1C(=O)NO (stereo partly drawn) | 316 | –
CCOP(=O)(c1ccc(OC)cc1)N1CC2Nc3ccccc3C2C[C@@H]1C(=O)NO (stereo partly drawn) | 1.13 | –
COc1ccc(P(=O)(OCCc2ccc(-c3ccccc3)cc2)N2Cc3ccccc3C[C@@H]2C(=O)NO)cc1 (stereo partly drawn) | 6.47 | –
CCOP(=O)(c1ccccc1)N1Cc2ccccc2C[C@@H]1C(=O)NO (stereo partly drawn) | 42.7 | 42.7
CCN(CC)CCOP(=O)(c1ccc(OC)cc1)N1Cc2ccccc2C[C@@H]1C(=O)NO (stereo partly drawn) | 16.7 | –
COc1ccc(P(=O)(OCC2CCCCC2)N2Cc3ccccc3C[C@@H]2C(=O)NO)cc1 (stereo partly drawn) | 4.56 | –
COc1ccc(P(=O)(OCCc2ccccn2)N2Cc3ccccc3C[C@@H]2C(=O)NO)cc1 (stereo partly drawn) | 3.42 | –
CCOCCOc1ccc(P(=O)(OCC)N2Cc3ccccc3C[C@@H]2C(=O)NO)cc1 (stereo partly drawn) | 14.2 | –
COc1ccc(P(=O)(OC)N2Cc3ccccc3C[C@@H]2C(=O)NO)cc1 (stereo partly drawn) | 2.03 | –
CCOP(=O)(c1cccc(F)c1)N1Cc2ccccc2C[C@@H]1C(=O)NO (stereo partly drawn) | 80.2 | –
CCOP(=O)(c1ccc(OC)cc1)N1Cc2ccccc2C[C@@H]1C(=O)NO (stereo partly drawn) | 5.05 | 5.05
CCOP(=O)(c1ccc(F)cc1)N1Cc2ccccc2C[C@@H]1C(=O)NO (stereo partly drawn) | 51.9 | 51.9
CCOP(=O)(c1cccs1)N1Cc2ccccc2C[C@@H]1C(=O)NO (stereo partly drawn) | 59.2 | –
CCOP(=O)(c1ccccc1F)N1Cc2ccccc2C[C@@H]1C(=O)NO (stereo partly drawn) | 32.1 | –
CCOP(=O)(c1ccc(OC)cc1)N1CCN(C(=O)OCc2ccccc2)C[C@@H]1C(=O)NO (stereo partly drawn) | 5.2 | –
CCOCCOP(=O)(c1ccc(OC)cc1)N1Cc2ccccc2C[C@@H]1C(=O)NO (stereo partly drawn) | 6.35 | –
CCOP(=O)(c1ccncc1)N1Cc2ccccc2C[C@@H]1C(=O)NO (stereo partly drawn) | 278 | –
COc1ccc(P(=O)(OC2CCCCC2)N2Cc3ccccc3C[C@@H]2C(=O)NO)cc1 (stereo partly drawn) | 6.58 | –
CCOP(=O)(c1ccc(-c2ccccc2)cc1)N1Cc2ccccc2C[C@@H]1C(=O)NO (stereo partly drawn) | 0.31 | –
CCOP(=O)(c1ccc(OC)cc1)N1Cc2ccsc2C[C@@H]1C(=O)NO (stereo partly drawn) | 3.8 | –
